Data: patent publication US20210032253A1, “PYRAZOLO[1,5-A][1,3,5]TRIAZINE-2-AMINE DERIVATIVE, PREPARATION METHOD THEREFOR AND MEDICAL USE THEREOF” (JIANGSU HENGRUI MEDICINE CO., LTD., priority 2018, published 2021)

Experiments:
Type in all cases: cell-based
[1] = target: T1, adenosine A1 receptor (A1R) (Homo sapiens, UniProt P30542); test: Inhibition of adenosine A1 receptor cAMP signaling pathway in CHO-K1/A1R cells (HTRF cAMP dynamic 2 kit); conditions: Table 2; for IC50: CHO-K1/A1R cells, cAMP, 10 μM forskolin, 10 nM CPA; for IC50 ratio (A1R/A2aR): selectivity A1R over A2aR
T1 construct: expressed in transfected cells; host or cells: CHO-K1
T1 sequence (P30542 1-326): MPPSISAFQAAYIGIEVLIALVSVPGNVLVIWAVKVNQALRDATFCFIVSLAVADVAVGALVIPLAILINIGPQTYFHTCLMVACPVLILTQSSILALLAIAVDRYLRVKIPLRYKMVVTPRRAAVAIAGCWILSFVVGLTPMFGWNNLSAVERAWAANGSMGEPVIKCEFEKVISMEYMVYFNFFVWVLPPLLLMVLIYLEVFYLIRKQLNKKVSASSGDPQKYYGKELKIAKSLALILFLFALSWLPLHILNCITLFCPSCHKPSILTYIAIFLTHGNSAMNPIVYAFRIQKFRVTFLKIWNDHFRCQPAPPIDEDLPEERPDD
From the text: (§1) Test Example 1. Determination of the inhibitory activities of the compounds of the present disclosure on the adenosine A2a receptor (A2aR) cAMP signaling pathway, the adenosine A1 receptor (A1R) cAMP signaling pathway and the adenosine A3 receptor (A3R) cAMP signaling pathway.
(§2) The inhibitory activities of the compounds of the present disclosure on the adenosine A2a receptor (A2aR) cAMP signaling pathway, the adenosine A1 receptor cAMP signaling pathway and the adenosine A3 receptor cAMP signaling pathway were determined by the following methods. The experimental method is briefly described as follows:
CHO-K1/A1R cells were cultured in DMEMIF12 medium containing 10% fetal bovine serum and 1 mg/mL G418. The cells were digested with the cell dissociation buffer during the experiment. The cells were then resuspended in the HBSS buffer containing 20 mM HEPES and 0.1% bovine serum albumin and counted, and the cell density was adjusted to 5×10^5 cells/mL. In 384-well plates, each well was added with 12.5 μL of the cell suspension, and 6.25 μL of the test compounds (4× concentration) formulated with the HBSS buffer containing 20 mM HEPES, 0.1% bovine serum albumin, 54 μM rolipram and 2.7 U/mL adenosine deaminase, and the plates were incubated at room temperature for 30 minutes. Each well was then added with 6.25 μL of forskolin and N6-cyclopentyladenosine (4× concentration) formulated with the HBSS buffer containing 20 mM HEPES, 0.1% bovine serum albumin, 54 μM rolipram and 2.7 U/mL adenosine deaminase, and the plates were incubated at room temperature for 30 minutes. The final concentrations of the compounds were: 100000, 10000, 1000, 100, 10, 1, 0.1 and 0 nM. The final concentration of forskolin was 10 μM. The final concentration of CPA was 10 nM. Intracellular cAMP concentration was determined with cAMP dynamic 2 kits. cAMP-d2 and Anti-cAMP—Eu-Cryptate were diluted respectively with the cAMP lysis buffer at a ratio of 1:4. Each well was added with 12.5 μL of the diluted cAMP-d2, followed by addition of 12.5 μL of the diluted Anti-cAMP—Eu-Cryptate, and the plates were incubated at room temperature in the dark for 1 hour. The HTRF signal values were read by the PHERAstar multi-function microplate reader.

[2] = target: T2, adenosine A2a receptor (A2aR) (Homo sapiens, UniProt P29274); test: Inhibition of adenosine A2a receptor cAMP signaling pathway in CHO-K1/A2aR cells (HTRF cAMP dynamic 2 kit); conditions: Table 1, 20 nM ethylcarbazole
T2 construct: expressed in transfected cells; host or cells: CHO-K1
From the text: as §1, §2
CHO-K1/A2aR cells were cultured in DMEM/F12 medium containing 10% fetal bovine serum and 800 μg/mL Zeocin™. The cells were digested with the cell dissociation buffer during the experiment. The cells were resuspended in the HBSS buffer containing 20 mM HEPES and 0.1% bovine serum albumin and counted, and the cell density was adjusted to 10^6 cells/mL. In 384-well plates, each well was added with 5 μL of the cell suspension, and 2.5 µL of test compounds (4× concentration) formulated with the HBSS buffer containing 20 mM HEPES, 0.1% bovine serum albumin, 54 μM rolipram and 2.7 U/mL adenosine deaminase, and the plates were incubated at room temperature for 30 minutes. Each well was then added with 2.5 μL of ethylcarbazole (4× concentration) formulated with the balanced salt buffer containing 20 mM HEPES, 0.1% bovine serum albumin, 54 μM rolipram and 2.7 U/mL adenosine deaminase, and the plates were incubated at room temperature for 30 minutes. The final concentrations of the compounds were: 10000, 2000, 400, 80, 16, 3.2, 0.64, 0.128, 0.0256, 0.00512, and 0.001024 nM. The final concentration of ethylcarbazole was 20 nM. Intracellular cAMP concentration was determined with cAMP dynamic 2 kits. cAMP-d2 and Anti-cAMP—Eu-Cryptate were diluted respectively with the cAMP lysis buffer at a ratio of 1:4. Each well was added with 5 μL of the diluted cAMP-d2, followed by addition of 5 μL of the diluted Anti-cAMP—Eu-Cryptate, and the plates were incubated at room temperature in the dark for 1 hour. The HTRF signal values were read by the PHERAstar multi-function microplate reader.

[3] = target: T3, adenosine A3 receptor (A3R) (Homo sapiens, UniProt P0DMS8); test: Inhibition of adenosine A3 receptor cAMP signaling pathway in CHO-K1/A3R cells (HTRF cAMP dynamic 2 kit); conditions: Table 3; for IC50: CHO-K1/A3R cells, cAMP, 10 μM forskolin, 5 nM 2Cl-IB-MECA; for IC50 ratio (A3R/A2aR): selectivity A3R over A2aR
T3 construct: expressed in transfected cells; host or cells: CHO-K1
T3 sequence (P0DMS8 1-318): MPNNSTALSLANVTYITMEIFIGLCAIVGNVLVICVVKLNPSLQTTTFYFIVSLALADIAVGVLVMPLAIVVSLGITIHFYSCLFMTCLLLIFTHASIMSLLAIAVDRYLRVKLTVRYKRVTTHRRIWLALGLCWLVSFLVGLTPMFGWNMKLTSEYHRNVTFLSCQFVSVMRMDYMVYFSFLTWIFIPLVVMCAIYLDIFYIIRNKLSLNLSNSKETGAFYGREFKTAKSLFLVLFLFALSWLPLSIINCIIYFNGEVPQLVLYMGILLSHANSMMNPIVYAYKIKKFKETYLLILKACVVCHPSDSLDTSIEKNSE
From the text: as §1, §2
CHO-K1/A3R cells were cultured in DMEMIF12 medium containing 10% fetal bovine serum and 10 μg/mL puromycin. The cells were digested with the cell dissociation buffer during the experiment. The cells were resuspended in the HBSS buffer containing 20 mM HEPES and 0.1% bovine serum albumin and counted, and the cell density was adjusted to 5×10^5 cells/mL. In 384-well plates, each well was added with 12.5 μL of the cell suspension, and 6.25 μL of the test compounds (4× concentration) formulated with the HBSS buffer containing 20 mM HEPES, 0.1% bovine serum albumin, 54 μM rolipram and 2.7 U/mL adenosine deaminase, and the plates were incubated at room temperature for 30 minutes. Each well was then added with 6.25 μL of forskolin and 2Cl-IB-MECA (4× concentration) formulated with the HBSS buffer containing 20 mM HEPES, 0.1% bovine serum albumin, […] rolipram and 2.7 U/mL adenosine deaminase, and the plates were incubated at room temperature for 30 minutes. The final concentrations of the compounds were: 100000, 10000, 1000, 100, 10, 1, 0.1 and 0 nM. The final concentration of forskolin was 10 μM. The final concentration of 2Cl-IB-MECA was 5 nM. Intracellular cAMP concentration was determined with cAMP dynamic 2 kits. cAMP-d2 and Anti-cAMP—Eu-Cryptate were diluted respectively with the cAMP lysis buffer at a ratio of 1:4. Each well was added with 12.5 μL of the diluted cAMP-d2, followed by addition of 12.5 μL of the diluted Anti-cAMP—Eu-Cryptate, and the plates were incubated at room temperature in the dark for 1 hour. The HTRF signal values were read by the PHERAstar multi-function microplate reader. IC50 values for the inhibitory activities of the compounds were calculated by Graphpad Prism software, and are shown in Table 3.

T2 sequence (P29274 whole entry): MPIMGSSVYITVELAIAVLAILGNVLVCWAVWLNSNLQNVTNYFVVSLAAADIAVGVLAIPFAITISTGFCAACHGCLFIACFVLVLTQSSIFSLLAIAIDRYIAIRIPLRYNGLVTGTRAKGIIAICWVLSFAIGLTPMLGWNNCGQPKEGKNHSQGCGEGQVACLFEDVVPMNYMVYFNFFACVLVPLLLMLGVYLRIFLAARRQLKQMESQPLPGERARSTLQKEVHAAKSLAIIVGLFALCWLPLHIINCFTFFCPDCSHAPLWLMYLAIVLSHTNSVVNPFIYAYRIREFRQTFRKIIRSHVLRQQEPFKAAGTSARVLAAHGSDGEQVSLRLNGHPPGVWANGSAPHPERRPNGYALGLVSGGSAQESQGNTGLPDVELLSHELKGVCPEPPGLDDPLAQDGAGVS

| IC50 [1] [nM] | IC50 ratio (A1R/A2aR) [1] | IC50 [2] [nM] | IC50 [3] [nM] | IC50 ratio (A3R/A2aR) [3] | SMILES |
| --- | --- | --- | --- | --- | --- |
| 3690 | >10^3 | 2.8 | 2180 | 779^ | Cc1ccc(-c2nc(N)nc3c(Nc4cccc(CN5CCN(C)CC5)n4)cnn23)o1 [Example 29, 4-(5-Methylfuran-2-yl)-N^8-(6-((4-methylpiperazin-1-yl)methyl)pyridin-2-yl)pyrazolo[1,5-a][1,3,5]triazine-2,8-diamine] |
| 684 | 238^ | 2.87 | 7600 | >10^3 | Cc1ccc(-c2nc(N)nc3c(Nc4cccc(CN5CC6COCC6C5)n4)cnn23)o1 (stereo not drawn) [Example 30, 4-(5-Methylfuran-2-yl)-N^8-(6-((tetrahydro-1H-furo[3,4-c]pyrrol-5(3H)-yl)methyl)pyridin-2-yl)pyrazolo[1,5-a][1,3,5]triazine-2,8-diamine] |
| 287 | 78^ | 3.74 | 5610 | >10^3 | Cc1ccc(-c2nc(N)nc3c(Nc4cccc(CN5CC6(COC6)C5)n4)cnn23)o1 [Example 32, N^8-(6-((2-Oxa-6-azaspiro[3.3]heptan-6-yl)methyl)pyridin-2-yl)-4-(5-methylfuran-2-yl)pyrazolo[1,5-a][1,3,5]triazine-2,8-diamine] |
